Laboratory results published in patent publication EP0872233A1, “Antiretroviral compositions with improved bioavailability” (JANSSEN PHARMACEUTICA N.V., priority 1997, dated 1998).

Tests used:
[1] = thermal stability at melt-extrusion temperatures; assay type: physicochemical; settings: temperatures up to 300°C
Protocol: One of the most important parameters of melt extrusion is the temperature at which the melt-extruder is operating. […] At temperatures lower than 120°C, loviride will not dissolve sufficiently in most water-soluble polymers and the extrudate will not have the required bioavailability. In addition, the process is difficult because of the high viscosity of the mixture. At temperatures of more than 300°C the water-soluble polymer may decompose to an unacceptable level.

[2] = in vivo
solubility in water = assay type: physicochemical; settings: room temperature, pH of 6.5, racemic free base
[3] = set-up: AUClast: dose or concentration left out as unconfirmed; settings: for Cmax: human, in vivo, po, 100 mg
Protocol: In this study 12 healthy volunteers in fasting conditions were administered a tablet of example 1 (100 mg loviride). Plasma levels of each of the loviride enantiomers were determined and the following bioavailability data were calculated therefrom.

Row | thermal stability [1] | half-life [2] | solubility (solubility in water) | AUClast [3] | Cmax [3] [ng/mL] | SMILES
1 | thermally very stable | short | less than 0.1 mg/100ml |  |  | CC(=O)c1ccc(C)cc1NC(C(N)=O)c1c(Cl)cccc1Cl (racemic) [loviride, (±)-α-[(2-acetyl-5-methylphenyl)amino]-2,6-dichlorobenzeneacetamide]
2 |  |  |  | 18,180 ± 7,197 ng.h/ml | 890 ± 292 | CC(=O)c1ccc(C)cc1NC(C(N)=O)c1c(Cl)cccc1Cl (single isomer, unassigned; (+)) [(+)-loviride]
3 |  |  |  | 1,347 ± 512 ng.h/ml | 155 ± 66 | CC(=O)c1ccc(C)cc1NC(C(N)=O)c1c(Cl)cccc1Cl (single isomer, unassigned; (-)) [(-)-loviride]
